# Laboratory results: US4604382A, “3'-amino-2',3'-dideoxycytidine and the pharmacologically acceptable salts thereof” (Research Corporation, priority 1983, dated 1986)
# Like-named read-outs stand apart in the source and are kept apart here.
# Experiments:
# [1] = test system: cytotoxicity of the novel compound; format: cell-based; conditions: in words
# Protocol: (§1) At a 5 μM concentration of this compound the addition of 25 μM and 100 μM of 2'-deoxycytidine prevented the cytotoxicity of the novel compound against L1210 cells by 35% and 100% respectively.
# L1210 cells [2] = format: cell-based, mouse
# Protocol: (§2) Mouse L1210 and S-180 cells were maintained as suspension cultures in Fischer's medium supplemented with 10% horse serum at 37° C. in a humidified atmosphere of 5% CO2 -95% air. Under these conditions the generation time for L1210 and S-180 cells is approximately 12 and 18 hours, respectively. The test compound at the given concentration, was added to L1210 and S-180 cells (2×10^4 cells/mL) which were in their exponential phase of growth. The increase in cell number of the drug-free culture (control), as well as that of the cultures supplemented with the test compound, was determined after 24, 48 and 72 hours of growth.
# as §1
# S-180 cells [3] = format: cell-based, mouse; conditions: 25 μM 2'-deoxycytidine added to 20 μM of the new compound
# Protocol: as §2, §1
# [4] = Water solubility of the new compound; format: physicochemical; conditions: at 23° C.
# Protocol: The new compound has excellent water solubility (~0.5 g/mL at 23° C.) and readily forms non-toxic acid addition salts with a variety of pharmacologically acceptable organic and inorganic salt-formingreagents. Thus, acid addition salts formed by admixture of the organic free base with up to two equivalents of an acid, suitably in a neutral solvent, are formed with such acids as sulfuric, phosphoric, hydrochloric,hydrobromic, sulfamic, citric, lactic, malic, succinic, tartaric, acetic, benzoic, gluconic, ascorbic, and the like. For purposes of this invention, the free base is equivalent to the non-toxic acid addition salts. The acid addition salts are, in general, crystalline solids, very soluble in water, relatively soluble in methanol and ethanol but relatively insoluble in non-polar organic solvents such as diethyl ether, benzene, toluene, and the like.
# L1210 cells [5] = experiment: Inhibition of replication of L1210 cells in vitro; format: cell-based; conditions: Mus musculus, mean cell counts after 72 hours, triplicate, read-out: ID50 (L1210)
# Protocol: as §2
# (§3) 3'-Amino-2',3'-dideoxycytidine was also screened against S-180 neoplastic cells in vitro. The ID50 values were estimated from dose-response curves compiled from at least two independent experiments and represent the drug concentration required to inhibit replication of L1210 or S-180 neoplastic cells by 50%.
# (§4) ID50 values were determined from plots of mean cell counts after 72
# (§5) hours. Assays were carried out in triplicate with appropriate controls.
# L1210 leukemia = L1210 leukemia in CDF1 mice, survival time (T/C); format: in vivo, mouse (CDF1 female mice); conditions: 160 mg/kg i.p. twice a day for 3 days, starting 24 hours post inoculation of 1×10^5 L1210 cells
# Protocol: Transplantation of L1210 ascites cells was carried out by withdrawing peritoneal fluid from donor CDF1 mice bearing 7-day growths. The suspension was centrifuged for 2 minutes (1600 g), the supernatant peritoneal fluid was decanted, and a 10-fold dilution with isotonic saline was made. The cell number was determined with a Coulter particle counter and the cell population was adjusted to 10^6 cells/mL. One-tenth mL of the resulting cell suspension (containing approximately 10^5 cells) was injected intraperitoneally into each animal. The drug was administered by intraperitoneal injection, beginning 24 hours after tumor implantation,twice daily for 3 consecutive days. The test compound was injected as a solution in isotonic saline. The drug was administered intraperitoneally in a volume of 0.25 mL. […] Mice were weighed during the course of the experiments, and the percentage change in body weight from onset to termination of therapy was used as an indication of drug toxicity. Determination of the sensitivity of ascitic neoplasms to this agent were based on the prolongation of survival time afforded by the drug treatments. The median survival time and the ratio of survival time for treated (T)/control (C) was calculated.
# 3'-Amino-2',3'-dideoxycytidine was screened against CDF1 female mice bearing L1210 leukemia according to the above protocol. Three groups of mice with 4 mice in each group were inoculated with 1×10^5 L1210 murine leukemia cells. Starting 24 hours post inoculation, the first group of mice was injected with saline as the vehicle control, the second group with 160 mg/kg of the test compound in saline twice a day, for 3 days. All control mice died by day 9. In the group treated with the test compound, one mouse died at day 21, the second at day 24, the third at day 29 and the last one at day 31, yielding a T/C×100 value of 283.
# S-180 cells [6] = experiment: Inhibition of replication of S-180 cells in vitro; format: cell-based; conditions: Mus musculus, mean cell counts after 72 hours, triplicate, read-out: ID50 (S-180)
# Protocol: as §2, §3, §4, §5
# [7] = 4 mice, all controls died by day 9
Structure (SMILES),prevention of the cytotoxicity of the novel compound [1],prevention of the cytotoxicity of the novel compound against L1210 cells (L1210 cells [2]; 25 μM 2'-deoxycytidine added to 5 μM of the novel compound),prevention of the cytotoxicity of the novel compound against L1210 cells (L1210 cells [2]; 100 μM 2'-deoxycytidine added to 5 μM of the novel compound),"preventive effect on the cytotoxicity of the novel compound against L1210 cells (L1210 cells [2]; dose dependence, in words)",prevention of the cytotoxicity of the novel compound against S-180 cells (S-180 cells [3]),solubility [4],IC50 (L1210 cells [5]),T/C×100 (survival time treated/control) (L1210 leukemia),"day of death, first mouse (L1210 leukemia; [7])","day of death, last mouse (L1210 leukemia; [7])","day of death, second mouse (L1210 leukemia; [7])","day of death, third mouse (L1210 leukemia; [7])",IC50 (S-180 cells [6])
Nc1ccn([C@H]2C[C@H](O)[C@@H](CO)O2)c(=O)n1 [2'-deoxycytidine],uniquely prevented,35%,100%,dose dependent,27%,,,,,,,,
"Nc1ccn([C@H]2C[C@H](N)[C@@H](CO)O2)c(=O)n1 [3'-amino-2',3'-dideoxycytidine, 3'-Amino-2',3'-dideoxycytidine]",,,,,,~500 mg/mL,0.7 µM,283,21 days,31 days,24 days,29 days,4 µM
